Measured values from patent US9839642B2, “Beta-tetrazolyl-propionic acids as metallo-beta-lactamase inhibitors” (priority 2014, dated 2017).
Like-named read-outs stand apart in the source and are kept apart here.

Legend:
IMP-1 = IMP-1 (Serratia marcescens, UniProt P52699); test: Enzyme activity: determination of IC50, fluorescence assay with CCF2-FA substrate; format: biochemical; details: CCF2-FA 1.25 μM, 2 hours at 25° C., read-out: IMP1 IC50
Outline: (§1)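 Final enzyme levels differed by target: 1 pM NDM-1, 2 pM IMP-1, 30 pM VIM-1. Each was incubated 2 hours at 25° C with test compound and 1.25 μM CCF2-FA, and 460 nm fluorescence (405 nm excitation) was fitted by 4-parameter curve to obtain IC50.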

NDM-1 = NDM-1 (Klebsiella pneumoniae, UniProt C7C422); test: as above; format: biochemical; details: CCF2-FA 1.25 μM, 2 hours at 25° C.
Outline: as §1

VIM-1 = VIM-1 (Pseudomonas aeruginosa, UniProt A0A0F7KYQ8); test: as above; format: biochemical; details: CCF2-FA 1.25 μM, 2 hours at 25° C., read-out: VIM1 IC50
Outline: as §1

[1] = tested on: Escherichia coli expressing NDM-1 (CLB30016); test: Antibiotic potentiation activity: synergistic concentration (MITC95) with imipenem, growth by OD600; format: cell-based
Outline: (§2)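 Colonies from overnight agar plates (35 °C) were suspended in saline and diluted 1:100 into 1.1× CAMHB. Inhibitor (final 200 μM to 0.195 μM) was combined with imipenem at 1 or 4 μg/ml, incubated 22–24 h at 35 °C, and absorbance read; MITC95 is the lowest inhibitor concentration giving 95% growth inhibition.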

[2] = tested on: Klebsiella pneumoniae expressing VIM-1 (IHMA599644); test: as above; format: cell-based
Outline: as §2

[3] = tested on: Serratia marcescens expressing IMP-1 (CL5741); test: as above; format: cell-based
Outline: as §2

[4] = 95% inhibition of bacterial growth, strain CLB30016
[5] = 95% inhibition of bacterial growth, strain IHMA599644
[6] = 95% inhibition of bacterial growth, strain CL5741
[7] = NDM-1 enzyme 1 pM, read-out: NDM1 IC50
[8] = E. coli CLB30016 (NDM-1), 95% inhibition of growth
[9] = K. pneumoniae IHMA599644 (VIM-1), 95% inhibition of growth
[10] = S. marcescens CL5741 (IMP-1), 95% inhibition of growth
[11] = enzyme 1 pM, read-out: NDM1 IC50

Sequence of NDM-1 (C7C422 29-270, looked up, species assumed): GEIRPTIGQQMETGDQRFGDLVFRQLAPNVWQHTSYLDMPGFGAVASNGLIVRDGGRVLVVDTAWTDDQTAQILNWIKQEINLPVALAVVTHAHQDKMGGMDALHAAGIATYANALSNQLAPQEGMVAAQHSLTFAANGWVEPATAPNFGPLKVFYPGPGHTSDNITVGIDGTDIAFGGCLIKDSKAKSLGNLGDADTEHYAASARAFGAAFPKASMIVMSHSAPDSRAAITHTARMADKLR
Sequence of IMP-1 (P52699 19-246, looked up, species assumed): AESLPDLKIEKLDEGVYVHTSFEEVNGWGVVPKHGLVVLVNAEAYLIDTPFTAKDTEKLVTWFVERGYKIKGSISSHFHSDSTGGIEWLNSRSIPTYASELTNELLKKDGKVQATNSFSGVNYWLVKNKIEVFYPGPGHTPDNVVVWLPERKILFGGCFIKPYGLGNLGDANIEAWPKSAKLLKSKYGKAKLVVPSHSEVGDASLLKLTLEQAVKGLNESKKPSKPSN

CC(C)C[C@H](C(=O)O)[C@H](Cc1ccc(C2=CCNCC2)cn1)c1nn[nH]n1 [Example 170, (2S)-4-methyl-2-[(1S)-2-(1′,2′,3′,6′-tetrahydro-3,4′-bipyridin-6-yl)-1-(2H-tetrazol-5-yl)ethyl]pentanoic acid]
IC50 (IMP-1; enzyme 2 pM): 3.6 µM
IC50 (NDM-1; NDM1 IC50, enzyme 1 pM): 0.25 µM
IC50 (VIM-1; enzyme 30 pM): 0.022 µM
NDM1 EC30016 MITC95 [1, 4]: 1.6 µM
VIM1 KP599644 MITC95 [2, 5]: 12.5 µM
IMP1 SM5741 MITC95 [3, 6]: 50 µM

CC(C)C[C@H](C(=O)O)[C@H](Cc1ccc(Oc2ccc(C(C)N)nc2)nc1)c1nn[nH]n1 (stereo partly drawn) [Example 380, (2S)-2-[(1S)-2-(6-{[6-(1-aminoethyl)pyridin-3-yl]oxy}pyridin-3-yl)-1-(2H-tetrazol-5-yl)ethyl]-4-methylpentanoic acid]
IC50 (IMP-1; IMP-1 enzyme 2 pM): 0.064 µM
IC50 (NDM-1; [7]): 0.012 µM
IC50 (VIM-1; VIM-1 enzyme 30 pM): 0.0024 µM
NDM1 EC30016 MITC95 [1, 8]: 4.7 µM
VIM1 KP599644 MITC95 [2, 9]: 50 µM
IMP1 SM5741 MITC95 [3, 10]: 4.7 µM

CCC[C@H](C(=O)O)[C@H](Cc1ccccc1-c1ccc(S(N)(=O)=O)cc1)c1nn[nH]n1 [Example 401, (2S)-2-[(1S)-2-(4′-sulfamoylbiphenyl-2-yl)-1-(2H-tetrazol-5-yl)ethyl]pentanoic acid]
IC50 (IMP-1; IMP-1 enzyme 2 pM): 1.9 µM
IC50 (NDM-1; [7]): 0.0039 µM
IC50 (VIM-1; VIM-1 enzyme 30 pM): 0.013 µM
NDM1 EC30016 MITC95 [1, 8]: 9.4 µM
VIM1 KP599644 MITC95 [2, 9]: 50 µM
IMP1 SM5741 MITC95 [3, 10]: 50 µM

CCC[C@H](C(=O)O)[C@H](Cc1ccc(C2CCN(C(=N)N)CC2)nc1)c1nnn[nH]1 [Example 298, (S)-2-((S)-2-(6-(1-carbamimidoylpiperidin-4-yl)pyridin-3-yl)-1-(1H-tetrazol-5-yl)ethyl)pentanoic acid]
IC50 (IMP-1; IMP-1 enzyme 2 pM): 2.7 µM
IC50 (NDM-1; [7]): 0.11 µM
IC50 (VIM-1; VIM-1 enzyme 30 pM): 0.01 µM
NDM1 EC30016 MITC95 [1, 8]: 1.6 µM
VIM1 KP599644 MITC95 [2, 9]: 12.5 µM
IMP1 SM5741 MITC95 [3, 10]: 25 µM

CC(C)C[C@H](C(=O)O)[C@H](Cc1ccc(-c2ccc([C@@H]3OC(=O)N[C@@H]3C)cc2)cn1)c1nn[nH]n1 [Example 173, (2S)-4-methyl-2-[(1S)-2-(5-{4-[(4R,5S)-4-methyl-2-oxo-1,3-oxazolidin-5-yl]phenyl}pyridin-2-yl)-1-(2H-tetrazol-5-yl)ethyl]pentanoic acid]
IC50 (IMP-1; enzyme 2 pM): 0.5 µM
IC50 (NDM-1; [11]): 0.027 µM
IC50 (VIM-1; enzyme 30 pM): 0.11 µM
NDM1 EC30016 MITC95 [1, 4]: 25 µM
VIM1 KP599644 MITC95 [2, 5]: >200 µM
IMP1 SM5741 MITC95 [3, 6]: 31 µM

CCC[C@H](C(=O)O)[C@H](Cc1nnc(N)s1)c1nnn[nH]1 [Example 284, (S)-2-((S)-2-(5-amino-1,3,4-thiadiazol-2-yl)-1-(1H-tetrazol-5-yl)ethyl)pentanoic acid]
IC50 (IMP-1; IMP-1 enzyme 2 pM): > 20 µM
IC50 (NDM-1; [7]): 13 µM
IC50 (VIM-1; VIM-1 enzyme 30 pM): 0.34 µM
NDM1 EC30016 MITC95 [1, 8]: 25 µM
VIM1 KP599644 MITC95 [2, 9]: 38 µM
IMP1 SM5741 MITC95 [3, 10]: >200 µM

CCC[C@H](C(=O)O)[C@H](Cc1cccc(N2CC[C@@H](N)C2)c1)c1nn[nH]n1 [Example 364, (2S)-2-[(1S)-2-{3-[(3R)-3-aminopyrrolidin-1-yl]phenyl}-1-(2H-tetrazol-5-yl)ethyl]pentanoic acid]
IC50 (IMP-1; IMP-1 enzyme 2 pM): 1.6 µM
IC50 (NDM-1; [7]): 0.11 µM
IC50 (VIM-1; VIM-1 enzyme 30 pM): 0.0024 µM
NDM1 EC30016 MITC95 [1, 8]: 9.4 µM
VIM1 KP599644 MITC95 [2, 9]: 12.5 µM
IMP1 SM5741 MITC95 [3, 10]: 38 µM

CCC[C@H](C(=O)O)[C@H](Cc1ccc(Br)s1)c1nnn[nH]1 [Example 425, (S)-2-((S)-2-(5-bromothiophen-2-yl)-1-(1H-tetrazol-5-yl)ethyl)pentanoic acid]
IC50 (IMP-1; IMP-1 enzyme 2 pM): 0.282 µM
IC50 (NDM-1; [7]): 0.105 µM
IC50 (VIM-1; VIM-1 enzyme 30 pM): 0.00363 µM
NDM1 EC30016 MITC95 [1, 8]: 12.5 µM
VIM1 KP599644 MITC95 [2, 9]: 12.5 µM
IMP1 SM5741 MITC95 [3, 10]: 25 µM

CCC[C@H](C(=O)O)[C@H](Cc1ccc(-c2ccc(C3(O)CNC3)cc2)nc1)c1nnn[nH]1 [Example 159, (2S)-2-[(1S)-2-{6-[4-(3-hydroxyazetidin-3-yl)phenyl]pyridin-3-yl}-1-(1H-tetrazol-5-yl)ethyl]pentanoic acid]
IC50 (IMP-1; enzyme 2 pM): 3.7 µM
IC50 (NDM-1; [11]): 0.4 µM
IC50 (VIM-1; enzyme 30 pM): 0.023 µM
NDM1 EC30016 MITC95 [1, 4]: 12.5 µM
VIM1 KP599644 MITC95 [2, 5]: 50 µM
IMP1 SM5741 MITC95 [3, 6]: 75 µM

CC(C)C[C@H](C(=O)O)[C@H](Cc1ccc(N2CC(S(C)(=O)=O)C2)nc1)c1nnn[nH]1 [Example 335, (2S)-4-methyl-2-[(1S)-2-{6-[3-(methylsulfonyl)azetidin-1-yl]pyridin-3-yl}-1-(1H-tetrazol-5-yl)ethyl]pentanoic acid]
IC50 (IMP-1; IMP-1 enzyme 2 pM): 0.056 µM
IC50 (NDM-1; [7]): 0.059 µM
IC50 (VIM-1; VIM-1 enzyme 30 pM): 0.0049 µM
NDM1 EC30016 MITC95 [1, 8]: 6.2 µM
VIM1 KP599644 MITC95 [2, 9]: 75 µM
IMP1 SM5741 MITC95 [3, 10]: 3.1 µM

O=C(O)[C@@H](CC(F)(F)F)[C@H](Cc1ccc(NCCO)nc1)c1nnn[nH]1 [Example 436, (S)-4,4,4-trifluoro-2-((S)-2-(6-((2-hydroxyethyl)amino)pyridin-3-yl)-1-(1H-tetrazol-5-yl)ethyl)butanoic acid]
IC50 (IMP-1; IMP-1 enzyme 2 pM): 8.29 µM
IC50 (NDM-1; [7]): 1.05 µM
IC50 (VIM-1; VIM-1 enzyme 30 pM): 0.054 µM
NDM1 EC30016 MITC95 [1, 8]: 2.344 µM
VIM1 KP599644 MITC95 [2, 9]: 25 µM
IMP1 SM5741 MITC95 [3, 10]: 100 µM

CCC[C@H](C(=O)O)[C@H](Cc1ccc(NCc2cc(OC)cc(OC)c2)nc1)c1nnn[nH]1 [Example 144, (S)-2-((S)-2-(6-((3,5-dimethoxybenzyl)amino)pyridin-3-yl)-1-(1H-tetrazol-5-yl)ethyl)pentanoic acid]
IC50 (IMP-1; enzyme 2 pM): 0.37 µM
IC50 (NDM-1; [11]): 0.016 µM
IC50 (VIM-1; enzyme 30 pM): 0.015 µM
NDM1 EC30016 MITC95 [1, 4]: 7.8 µM
VIM1 KP599644 MITC95 [2, 5]: 200 µM
IMP1 SM5741 MITC95 [3, 6]: 62 µM

CCC[C@H](C(=O)O)[C@H](Cc1ccccc1-c1ccncc1)c1nn[nH]n1 [Example 397, (2S)-2-[(1S)-2-(2-pyridin-4-ylphenyl)-1-(2H-tetrazol-5-yl)ethyl]pentanoic acid]
IC50 (IMP-1; IMP-1 enzyme 2 pM): 5 µM
IC50 (NDM-1; [7]): 0.013 µM
IC50 (VIM-1; VIM-1 enzyme 30 pM): 0.016 µM
NDM1 EC30016 MITC95 [1, 8]: 6.2 µM
VIM1 KP599644 MITC95 [2, 9]: 75 µM
IMP1 SM5741 MITC95 [3, 10]: 200 µM

CCC[C@H](C(=O)O)[C@H](Cc1cnc(N2CCOCC2)nc1)c1nnn[nH]1 [Example 287, (S)-2-((S)-2-(2-morpholinopyrimidin-5-yl)-1-(1H-tetrazol-5-yl)ethyl)pentanoic acid]
IC50 (IMP-1; IMP-1 enzyme 2 pM): 9.2 µM
IC50 (NDM-1; [7]): 0.1 µM
IC50 (VIM-1; VIM-1 enzyme 30 pM): 0.005 µM
NDM1 EC30016 MITC95 [1, 8]: 25 µM
VIM1 KP599644 MITC95 [2, 9]: 50 µM
IMP1 SM5741 MITC95 [3, 10]: 75 µM

CCC[C@H](C(=O)O)[C@H](Cc1ccc(NCCO)cn1)c1nnn[nH]1 [Example 136, (S)-2-((S)-2-(5-((2-hydroxyethyl)amino)pyridin-2-yl)-1-(1H-tetrazol-5-yl)ethyl)pentanoic acid]
IC50 (IMP-1; enzyme 2 pM): 6.8 µM
IC50 (NDM-1; [11]): 0.34 µM
IC50 (VIM-1; enzyme 30 pM): 0.15 µM
NDM1 EC30016 MITC95 [1, 4]: 1.2 µM
VIM1 KP599644 MITC95 [2, 5]: 18.8 µM
IMP1 SM5741 MITC95 [3, 6]: 100 µM

CCC[C@H](C(=O)O)[C@H](Cc1cccc(N)n1)c1nnn[nH]1 [Example 117, (2S)-2-[(1S)-2-(6-aminopyridin-2-yl)-1-(1H-tetrazol-5-yl)ethyl]pentanoic acid]
IC50 (IMP-1; enzyme 2 pM): > 20 µM
IC50 (NDM-1; [11]): 1.3 µM
IC50 (VIM-1; enzyme 30 pM): 0.37 µM
NDM1 EC30016 MITC95 [1, 4]: 1.6 µM
VIM1 KP599644 MITC95 [2, 5]: 18.8 µM
IMP1 SM5741 MITC95 [3, 6]: >200 µM

CC(C)C[C@H](C(=O)O)[C@H](Cc1ccc(-c2ccnc(N)c2)cn1)c1nn[nH]n1 [Example 179, (2S)-2-[(1S)-2-(2′-amino-3,4′-bipyridin-6-yl)-1-(2H-tetrazol-5-yl)ethyl]-4-methylpentanoic acid]
IC50 (IMP-1; enzyme 2 pM): 1.3 µM
IC50 (NDM-1; [11]): 0.066 µM
IC50 (VIM-1; enzyme 30 pM): 0.024 µM
NDM1 EC30016 MITC95 [1, 4]: 12.5 µM
VIM1 KP599644 MITC95 [2, 5]: 50 µM
IMP1 SM5741 MITC95 [3, 6]: 38 µM

CC(C)C[C@H](C(=O)O)[C@H](Cc1ccc(S(C)(=O)=O)cc1)c1nn[nH]n1 [Example 50, (S)-4-methyl-2-((S)-2-(4-(methylsulfonyl)phenyl)-1-(2H-tetrazol-5-yl)ethyl)pentanoic acid]
IC50 (IMP-1; enzyme 2 pM): 0.1 µM
IC50 (NDM-1; [11]): 0.047 µM
IC50 (VIM-1; enzyme 30 pM): 0.0066 µM
NDM1 EC30016 MITC95 [1, 4]: 25 µM
VIM1 KP599644 MITC95 [2, 5]: 50 µM
IMP1 SM5741 MITC95 [3, 6]: 6.2 µM

CCC[C@H](C(=O)O)[C@H](Cc1cccc(-c2ccc3c(c2)CCC(N)C3)c1)c1nn[nH]n1 (stereo partly drawn) [Example 354, (2S)-2-[(1S)-2-[3-(6-amino-5,6,7,8-tetrahydronaphthalen-2-yl)phenyl]-1-(2H-tetrazol-5-yl)ethyl]pentanoic acid]
IC50 (IMP-1; IMP-1 enzyme 2 pM): 0.31 µM
IC50 (NDM-1; [7]): 0.013 µM
IC50 (VIM-1; VIM-1 enzyme 30 pM): 0.0014 µM
NDM1 EC30016 MITC95 [1, 8]: 9.4 µM
VIM1 KP599644 MITC95 [2, 9]: 9.4 µM
IMP1 SM5741 MITC95 [3, 10]: 4.7 µM
